In patent EP0923576B1, “4-AMINOETHOXY-INDOLONE DERIVATIVES AS DOPAMINE D2 AGONISTS” (Wyeth, priority 1996, dated 1998):

How the values were obtained:
dopamine D-2 receptor = target: T1, dopamine D-2 receptor (Rattus norvegicus, UniProt P61169); assay: 3H-spiroperidol binding, affinity for the dopamine D-2 receptor in homogenized limbic brain tissue; details: for Ratio: ratio IC50 D2 Spiper / IC50 D2 Quin. (LowAg/HighAg), predicts intrinsic activity; for IC50: read-out: IC50 (nM) D2 Spiper
T1 construct: homogenized limbic brain tissue is incubated with ^3H-spiroperidol; from tissue

dopamine autoreceptor = dopamine autoreceptor (Rattus norvegicus, UniProt P61169); assay: 3H-quinpirole binding, affinity for the dopamine autoreceptor in homogenized striatal brain tissue
Chain of dopamine autoreceptor (P61169 whole entry): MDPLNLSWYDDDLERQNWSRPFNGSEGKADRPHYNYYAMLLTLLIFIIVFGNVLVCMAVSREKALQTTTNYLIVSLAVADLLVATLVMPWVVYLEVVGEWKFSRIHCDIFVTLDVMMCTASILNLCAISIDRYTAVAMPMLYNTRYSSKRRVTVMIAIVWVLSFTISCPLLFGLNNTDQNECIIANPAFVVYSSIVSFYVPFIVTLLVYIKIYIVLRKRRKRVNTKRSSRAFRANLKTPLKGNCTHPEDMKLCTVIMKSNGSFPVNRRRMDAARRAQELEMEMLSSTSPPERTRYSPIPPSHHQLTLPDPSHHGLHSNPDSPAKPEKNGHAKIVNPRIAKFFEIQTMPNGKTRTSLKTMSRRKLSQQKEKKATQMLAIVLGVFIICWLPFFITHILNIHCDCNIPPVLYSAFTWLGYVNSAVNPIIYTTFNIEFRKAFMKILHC
Method: Affinity for the dopamine autoreceptor was established by a modification of the standard experimental test procedure of Seemen and Schaus, European Journal of Pharmacology 203, 105-109 (1991), wherein homogenized rat striatal brain tissue is incubated with ^3H-quinpirole (Quin.)and various concentrations of test compound, filtered and washed and counted in a Betaplate scintillation counter.

T1 sequence (P61169 whole entry): as above

SMILES: CSC1C(=O)Nc2c(F)ccc(OCCNCc3ccsc3)c21 (stereo not drawn) [Example 1]
- Ratio (dopamine D-2 receptor): 91
- IC50 (dopamine D-2 receptor): 135 nM
- IC50 (dopamine autoreceptor): 1.49 nM

SMILES: O=C1Cc2c(OCCNCc3cccs3)ccc(Cl)c2N1 [Example 2a, 4-[2-Thien-2-ylmethyl)aminoethoxyl-7-chloro-1,3-dihydro-indol-2-one]
- Ratio (dopamine D-2 receptor): 30.5
- IC50 (dopamine D-2 receptor): 33.5 nM
- IC50 (dopamine autoreceptor): 1.1 nM

SMILES: O=C1Cc2c(OCCNCc3ccsc3)ccc(Cl)c2N1 [Example 2b, 4-[2-(Thien-3-ylmethyl)aminoethoxy]-7-chloro 1,3-dihydro-indol-2-one]
- Ratio (dopamine D-2 receptor): 37.7
- IC50 (dopamine D-2 receptor): 26.7 nM
- IC50 (dopamine autoreceptor): 0.71 nM

SMILES: O=C1Cc2c(OCCNCc3ccsc3)ccc(F)c2N1 [Example 3a]
- Ratio (dopamine D-2 receptor): 128
- IC50 (dopamine D-2 receptor): 323 nM
- IC50 (dopamine autoreceptor): 2.53 nM

SMILES: O=C1Cc2c(OCCNCc3cccs3)ccc(F)c2N1 [Example 3b, 4-[2-(Thien-2-ylmethyl)aminoethoxy]-7-fluoro-1,3-dihydro-indol-2-one]
- Ratio (dopamine D-2 receptor): 293
- IC50 (dopamine D-2 receptor): 398 nM
- IC50 (dopamine autoreceptor): 1.36 nM
